{
  "source": "ChEMBL document CHEMBL4368916",
  "about": "“Design, Synthesis, and Biological Evaluation of Retinoic Acid-Related Orphan Receptor γt (RORγt) Agonist Structure-Based Functionality Switching Approach from In House RORγt Inverse Agonist to RORγt Agonist” (J Med Chem, 2019)",
  "key": {"[1]": {"target": "T1, Nuclear receptor ROR-gamma (Mus musculus) (UniProt P51450)", "T1 sequence (whole entry)": "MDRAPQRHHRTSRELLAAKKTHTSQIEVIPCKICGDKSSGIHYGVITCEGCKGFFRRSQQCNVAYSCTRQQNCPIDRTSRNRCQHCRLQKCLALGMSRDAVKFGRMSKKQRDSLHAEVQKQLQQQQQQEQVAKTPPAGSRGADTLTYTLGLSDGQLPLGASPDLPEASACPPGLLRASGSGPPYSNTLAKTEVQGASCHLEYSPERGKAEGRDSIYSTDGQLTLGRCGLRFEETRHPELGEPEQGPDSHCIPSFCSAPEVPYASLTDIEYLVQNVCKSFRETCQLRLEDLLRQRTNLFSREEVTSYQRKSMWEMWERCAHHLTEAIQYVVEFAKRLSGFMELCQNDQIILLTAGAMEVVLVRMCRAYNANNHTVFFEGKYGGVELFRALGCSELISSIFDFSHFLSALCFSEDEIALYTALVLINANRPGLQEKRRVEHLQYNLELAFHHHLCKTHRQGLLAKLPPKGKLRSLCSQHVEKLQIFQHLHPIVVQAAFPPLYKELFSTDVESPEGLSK", "experiment": "Inverse agonist activity at RORgammat in mouse naive CD4+ T cells assessed as […] of IL17 production at 0.001 to 10 uM after 4 days by ELISA", "format": "cell-based"}, "[2]": {"target": "T1, Nuclear receptor ROR-gamma (Mus musculus)", "experiment": "Agonist activity at RORgammat in mouse naive CD4+ T cells assessed as induction of IL17 production at 0.1 to 3 uM after 4 days by ELISA", "format": "cell-based"}, "[3]": {"experiment": "AUC (0 to 8 hrs) in ICR mouse at 0.1 mg/kg, iv or 1 mg/kg, po by LC/MS/MS analysis", "format": "ADME, organism-based", "conditions": "in vivo"}, "[4]": {"experiment": "MRT in ICR mouse at 0.1 mg/kg, iv or 1 mg/kg, po by LC/MS/MS analysis", "format": "ADME, organism-based", "conditions": "in vivo"}, "[5]": {"experiment": "Oral bioavailability in ICR mouse at 1 mg/kg by LC/MS/MS analysis", "format": "ADME, organism-based", "conditions": "in vivo"}, "[6]": {"target": "Cytochrome P450 3A4 (Homo sapiens, UniProt P08684)", "sequence (P08684 whole entry)": "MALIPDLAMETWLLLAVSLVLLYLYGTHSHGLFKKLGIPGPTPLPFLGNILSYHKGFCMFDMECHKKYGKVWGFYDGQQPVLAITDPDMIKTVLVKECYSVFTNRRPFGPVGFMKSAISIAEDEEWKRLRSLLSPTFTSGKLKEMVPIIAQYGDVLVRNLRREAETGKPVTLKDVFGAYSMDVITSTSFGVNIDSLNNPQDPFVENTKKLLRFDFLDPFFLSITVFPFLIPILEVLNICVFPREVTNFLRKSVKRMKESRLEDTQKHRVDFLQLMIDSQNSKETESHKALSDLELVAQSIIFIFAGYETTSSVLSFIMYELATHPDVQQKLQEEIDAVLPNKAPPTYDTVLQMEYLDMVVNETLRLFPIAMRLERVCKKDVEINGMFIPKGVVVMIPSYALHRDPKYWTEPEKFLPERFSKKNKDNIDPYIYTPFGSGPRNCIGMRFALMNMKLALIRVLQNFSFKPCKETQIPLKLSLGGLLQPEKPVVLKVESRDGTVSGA", "experiment": "Inhibition of CYP3A4 (unknown origin) at 10 uM", "format": "ADME"}, "[7]": {"tested_on": "HepG2", "experiment": "Cytotoxicity against human HepG2 cells at 100 uM", "format": "cell-based", "conditions": "hepg2, 100 µM"}, "[8]": {"experiment": "Cmax in ICR mouse at 0.1 mg/kg, iv or 1 mg/kg, po by LC/MS/MS analysis", "format": "ADME, organism-based", "conditions": "in vivo"}},
  "note": "The source made the active and inactive calls. No cut-off for these calls is given here.",
  "data": [
    {"compound": "COc1ccc2c(n1)CCN(C(=O)CCCC(=O)O)[C@H]2C(=O)Nc1cc(F)c2c(c1)CCC2(C)C", "values": [
      {"measurement": "Activity", "setting": "[1]", "result": "Active"}
    ]},
    {"compound": "CCOc1ccccc1CN1CCc2cc(NC(=O)[C@H]3c4ccc(OC)nc4CCN3C(C)=O)ccc21", "values": [
      {"measurement": "Activity", "setting": "[2]", "result": "Dose-dependent effect"}
    ]},
    {"compound": "CCOc1ccccc1CN1CCc2cc(NC(=O)[C@H]3c4ccc(OC)nc4CCN3C(=O)CCCC(=O)O)ccc21", "values": [
      {"measurement": "AUC(0-t)", "setting": "[3]", "result": 1720, "unit": "ng·h/mL"},
      {"measurement": "MRT", "setting": "[4]", "result": 4.1, "unit": "h"},
      {"measurement": "bioavailability", "setting": "[5]", "result": 19, "unit": "%"},
      {"measurement": "inhibition (INH)", "setting": "[6]", "result": "Not Active"},
      {"measurement": "Activity", "setting": "[2]", "result": "Dose-dependent effect"},
      {"measurement": "Activity", "setting": "[7]", "result": "Non-Toxic"},
      {"measurement": "Cmax", "setting": "[8]", "result": 227, "unit": "ng/mL"}
    ]}
  ]
}
